The numbers were not newly measured in patent US20220295833A1, “SWEETENER BLENDS WITH IMPROVED TASTE” (The Coca-Cola Company, priority 2019, published 2022), which cites them from elsewhere.

Molecules are shown by their SMILES.

Take `C=C1C[C@@]23CC[C@H]4[C@@](C)(CCC[C@@]4(C)C(=O)O[C@@H]4O[C@H](CO)[C@@H](O)[C@H](O)[C@H]4O)[C@@H]2CC[C@]1(O[C@@H]1O[C@H](CO)[C@@H](O)[C@H](O[C@@H]2O[C@H](CO)[C@@H](O)[C@H](O)[C@H]2O)[C@H]1O[C@@H]1O[C@H](CO)[C@@H](O)[C@H](O)[C@H]1O)C3` [Rebaudioside A]: the aqueous solubility result is listed as “about 0.8 wt %”.
